The record followed here is patent US20110195929A1, “COMPOUNDS FOR THE TREATMENT OF FLAVIVIRAL INFECTIONS” (SUMMIT CORPORATION PLC, priority 2008, published 2011).

Assay [1] has as its system β-D-galactosidase. Put plainly: Glycosidase inhibition: β-D-galactosidase. The assay is classed as biochemical, Bovine liver. Particulars: 1 mg/ml; pH 7.3, 20° C. The method, then: (§1) Inhibition of the N-linked glycan trimming enzymes alpha-Glucosidases I and II or alpha-Mannosidases I and II are thought to be related to the anti-viral activity of castanospermine (Compound 104) and 1-deoxynojirimycin (Compound 193). […] All enzymes were purchased from Sigma, as were the appropriate p-nitrophenyl substrates. Assays were carried out in microtitre plates. Enzymes were assayed in 0.1M citric acid/0.2M di-sodium hydrogen phosphate (McIlvaine) buffers at the optimum pH for the enzyme. All assays were carried out at 20° C. For screening assays the incubation assay consisted of 10 μl of enzyme solution, 10 μl of inhibitor solution (made up in water at 5 mM) and 50 μl of the appropriate 5 mM p-nitrophenyl substrate (3.57 mM final conc.) made up in McIlvaine buffer at the optimum pH for the enzyme.
(§2) The reactions were stopped with 0.4M glycine (pH 10.4) during the exponential phase of the reaction, which was determined at the beginning of the assay using blanks with water, which were incubated for a range of time periods to measure the reaction rate using 5 mM substrate solution. Endpoint absorbances were read at 405 nm with a Bio-rad microtitre plate reader (Benchmark). Water was substituted for the inhibitors in the blanks.

In assay [2] the test system is Naringinase. The assay is described as follows: Glycosidase inhibition: Naringinase. The assay is classed as biochemical, Penecillium decumbens. Particulars: 1 mg/ml; pH 4.0, 20° C. As for the experimental part:
as §1, §2

In assay [3] the test system is N-acetyl-β-D-glucosaminidase. The assay is described as follows: Glycosidase inhibition: N-acetyl-β-D-glucosaminidase. The assay is classed as biochemical, Bovine kidney. Particulars: 1 mg/ml; pH 4.25, 20° C. The method, then: as §1, §2
Assay [4] has as its target T1, α-D-mannosidase (Canavalia ensiformis, UniProt C0HJB3).
T1 construct: purchased Sigma
T1 sequence (C0HJB3 1-981): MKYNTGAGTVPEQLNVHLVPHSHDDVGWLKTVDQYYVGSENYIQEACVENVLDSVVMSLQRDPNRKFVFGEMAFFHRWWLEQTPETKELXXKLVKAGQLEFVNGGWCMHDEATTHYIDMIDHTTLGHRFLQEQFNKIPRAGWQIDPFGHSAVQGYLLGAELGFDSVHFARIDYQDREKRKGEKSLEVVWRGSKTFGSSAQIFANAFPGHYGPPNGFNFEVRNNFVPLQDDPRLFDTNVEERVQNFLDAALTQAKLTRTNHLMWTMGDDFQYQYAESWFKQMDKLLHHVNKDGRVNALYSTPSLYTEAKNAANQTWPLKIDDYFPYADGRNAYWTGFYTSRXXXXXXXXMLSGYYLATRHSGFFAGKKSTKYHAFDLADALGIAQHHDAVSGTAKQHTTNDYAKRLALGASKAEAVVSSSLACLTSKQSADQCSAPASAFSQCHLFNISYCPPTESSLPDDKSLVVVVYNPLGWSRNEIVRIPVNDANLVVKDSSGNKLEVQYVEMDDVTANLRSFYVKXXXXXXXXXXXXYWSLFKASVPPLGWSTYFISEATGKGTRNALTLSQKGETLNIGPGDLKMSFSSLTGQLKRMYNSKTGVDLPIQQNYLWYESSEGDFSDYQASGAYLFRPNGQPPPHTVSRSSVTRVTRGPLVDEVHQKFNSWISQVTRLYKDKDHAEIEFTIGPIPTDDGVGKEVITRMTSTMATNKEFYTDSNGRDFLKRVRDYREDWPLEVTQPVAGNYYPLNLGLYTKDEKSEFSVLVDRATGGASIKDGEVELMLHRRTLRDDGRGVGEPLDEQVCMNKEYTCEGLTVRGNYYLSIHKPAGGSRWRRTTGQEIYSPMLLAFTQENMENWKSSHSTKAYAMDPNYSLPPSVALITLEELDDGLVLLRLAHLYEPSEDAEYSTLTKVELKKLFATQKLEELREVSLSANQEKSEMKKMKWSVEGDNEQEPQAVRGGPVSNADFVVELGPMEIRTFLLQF
Put plainly: Glycosidase inhibition: α-D-mannosidase. The class given is biochemical, Jack beans (Canavalia ensiformis). Particulars: 1 mg/ml; pH 4.5, 20° C. The method, then:
as §1, §2

`CC[C@@H]1N[C@@H](CO)[C@H](O)[C@@H](O)[C@@H]1O` [Compound 23, (2S,3R,4S,5S,6S)-2-ethyl-6-(hydroxymethyl)piperidine-3,4,5-triol]: in assay [1], the “% inhibition β-galactosidase” value was 53%. Moreover, in assay [2], the “% inhibition Naringinase” value turned out to be 0%. The “% inhibition N-acetyl-β-gluc” value in assay [3] was 0%. This molecule also yielded an inhibition at 1000 µg/mL in assay [4] of 0%.

As for `CC[C@@H](O)[C@H]1N[C@H](CO)[C@@H](O)[C@@H]1O` [Compound 62, (2R,3R,4R,5R)-2-(hydroxymethyl)-5-((R)-1-hydroxypropyl)pyrrolidine-3,4-diol], the “% inhibition β-galactosidase” value in assay [1] amounted to 100%. In assay [2], the “% inhibition Naringinase” value is on record as 37%. In addition, the “% inhibition N-acetyl-β-gluc” value in assay [3] amounted to 20%. Besides, in assay [4], testing at 1000 µg/mL gave an inhibition of 0%.

`CC(O)[C@H](O)[C@H]1N[C@H](CO)[C@@H](O)[C@@H]1O` (stereo partly drawn) [Compound 63, (2R,3R,4R,5R)-2-((1R)-1,2-dihydroxypropyl)-5-(hydroxymethyl)pyrrolidine-3,4-diol]: the “% inhibition β-galactosidase” value in assay [1] came to 93%. In assay [2], the “% inhibition Naringinase” value is reported as 0%. For the same molecule, the “% inhibition N-acetyl-β-gluc” value in assay [3] came to 0%. In addition, in assay [4], the inhibition at 1000 µg/mL came to 0%.

With `O[C@H]1[C@H](O)[C@@H](O)CN2CC[C@H](O)[C@H]12` [Compound 104, Castanospermine, reference compound], in assay [1], the “% inhibition β-galactosidase” value was found to be 16%. The “% inhibition Naringinase” value in assay [2] is listed as 39%. Further, the “% inhibition N-acetyl-β-gluc” value in assay [3] stood at 0%. The inhibition at 1000 µg/mL in assay [4] amounted to 0%.

`OC[C@@H]1NC[C@H](O)[C@@H]1O` [Compound 167, (2S,3R,4S)-2-(hydroxymethyl)pyrrolidine-3,4-diol]: the “% inhibition β-galactosidase” value in assay [1] worked out at 0%. Also, the “% inhibition Naringinase” value in assay [2] worked out at 50%. Further, in assay [3], the “% inhibition N-acetyl-β-gluc” value was 19%. Also, 1000 µg/mL produced 0% inhibition in assay [4].

Usually inhibition stands for how much of the control response was suppressed. Higher therefore signals a strong effect.
